The conditions of series [1]: single intraperitoneal dose at 10 times the MIC.
Method: Neutropenic mice were infected intramuscularly (in the right thigh) with 10^6 cells per mL of Gram-negative A. baumannii (ATCC 19606).
(a) Schematic of the deep thigh infection model in which bacteria are injected intramuscularly at day 4 and peptides are administered intraperitoneally also at day 4 to assess their anti-infective activity. Mice were euthanized 4 days postinfection (day 8). Each group consisted of six mice (n = 6), and the bacterial loads used to infect the mice derived from three different inocula. […] Polymyxin B (0.006 mg/kg) and levofloxacin (0.014 mg/kg) were used as the reference antibiotics. Statistical significance was done using one-way ANOVA followed by Dunnett’s test. Violin plots represent the median, upper quartile, and lower quartile. (c) Mouse weight was monitored to exclude possible toxic effects of the peptides.
Six-week-old female CD-1 mice (obtained from Charles River; stock number 18679700-022) underwent neutropenia induction via two intraperitoneal doses of cyclophosphamide (150 mg kg^–^1) administered with a 72 h interval. One day later, the mice received an intramuscular injection containing A. baumannii ATCC 19606 (10^6 CFU mL^–1) in the right thigh. Bacteria were cultured in LB broth, washed twice with PBS (pH 7.4), and resuspended to the desired concentration. […] Polymyxin B (0.006 mg/kg) and levofloxacin (0.014 mg/kg) were used as the reference antibiotics. Prior to each injection, mice were anesthetized with isoflurane and their respiratory rate and pedal reflexes were monitored. Subsequently, we observed the infection establishment and euthanized the mice. The infected area was excised 4 days postinfection (i.e., 8 days after the beginning of the experiment), homogenized using a bead beater for 20 min (25 Hz), and 10-fold serially diluted for CFU quantification on MacConkey agar plates. Each experimental group comprised three mice. All experiments were conducted blindly, and no animals were excluded from the analysis. Statistical significance was assessed using one-way ANOVA followed by Dunnett’s test on log10-transformed data to mitigate outlier effects; p values are reported for each group, with all groups compared to the untreated control group.
Series [2] relates to E. faecium ATCC 19434T (WT). The note with it: E. faecium / ATCC 19434T / WT / Prot. b; Prot. b.
In series [3] the test system is P. aeruginosa NCTC 13437 (ESBL). To be noted: P. aeruginosa / NCTC 13437 / ESBL / Prot. a; Prot. a.
In series [4] the test system is K. pneumoniae ATCC 700603 (ESBL). The note with it: K. pneumoniae / ATCC 700603 / ESBL / Prot. a; Prot. a.
Series [5] has as its system S. aureus NRS1 (MRSA or VISA). To be noted: S. aureus / NRS1 / MRSA or VISA / Prot. a; Prot. a.
Series [6] has as its system P. aeruginosa K11 (IMI, MER, CTZ, PIT). The note with it: P. aeruginosa / K11 / IMI, MER, CTZ, PIT / Prot. c; Prot. c.
In a further series the test system is E. coli (TOP10). Kind of series: Broth microdilution antimicrobial susceptibility assay. It is filed as cell-based, Escherichia coli. Put shortly: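 Bacteria were grown on MHA for 24 h, subcultured in MHB for 6 h at 37 °C and diluted to 10^6 CFU/mL. Compounds were serially diluted from 50 to 0.1 μM, inoculated and incubated for 24 h at 37 °C. MIC was the lowest concentration with no visible turbidity.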

The subject of the next series is RPMI 8226. Kind of series: cells. Type of series: cell-based, human. To be noted: 72 h. How it is done:
(§1) The CellTiter-Glo luminescent cell viability assay examining the impact of peptides on 22 different human cell lines was purchased from Reaction Biology Europe GmbH (Germany). Cells were cultured in different media (Table S1), seeded into a flat-bottom 96-well plate, and incubated at 37 °C. After overnight incubation, test compounds were added with 1% PBS/0.3% Tween 20 and the reference compound bortezomib was added with 0.1% DMSO. Negative controls were solvents alone, and positive control was 10 μM staurosporine. After 72 h of incubation at 37 °C, 5 or 10% CO2 (dependent on the medium), and 1 h equilibration at room temperature, well plates were treated with CellTiter-Glo reagent (Promega) for an hour and luminescence was measured using a luminometer.
(§2) Table S1. In vitro activity against 22 different human cancer cell lines.
(§3) Sr. Cancer Activity (in M)
(§4) no. Cell line type Culture medium
(§5) The effect of investigated compounds on the proliferation of 22 different human cell lines is
(§6) Twenty of these 22 cell lines represent specific cancer types and 2 were non-cancerous. Peptide
(§7) Anticancer drug bortezomib was used as the […]

The test system of the next series is OVCAR-3. Kind of series: cells. Type of series: cell-based, human. The note with it: 72 h. As for the experimental part:
as §1, §2, §3, §4, §5, §6, §7

In another series the test system is MDA MB 435. Kind of series: cells. Type of series: cell-based, human. The note with it: 72 h. How it is done: as §1, §2, §3, §4, §5, §6, §7
The next series relates to HCT-15. Kind of series: cells. It is filed as cell-based, human. The note with it: 72 h. As for the experimental part:
as §1, §2, §3, §4, §5, §6, §7

Ends that are not written are not given here. Where only a bound is given, the exact number is not on record here.

For “KKKKLKKILKKLFQFINQLDNQLQDIKKKK-NH2 [LP18]”, the “Change in mouse weight” value in series [1] is listed as “no significant change in mouse weight”. Besides, the MIC is 15 µM in series [2]; 11 µM in series [3]; 4 µM in [4]; over 16 µM in series [5]; 16 µM in [6]. In addition, the “pH dependence of antimicrobial activity” value with E. coli (TOP10) (pH 8 and 6) is “independent of pH”.
As for “KKKKLKKILKKLFQFINQLDNQLQDIKQNK-NH2 [LP1]”, the IC50 in the series with RPMI 8226 was found to be 4.4 µM; with OVCAR-3, 4.9 µM; in the series with MDA MB 435, 1.4 µM; in the series with HCT-15, 4.7 µM. The “Change in mouse weight” value in [1] is reported as “no significant change in mouse weight”. Besides, the MIC is over 32 µM in [2]; over 16 µM in [3]; 4 µM in series [4]; over 16 µM in [5]; over 32 µM in series [6].
On to “H-HHHHLKKILKKLFQFINQLDNQLQDIHHHH-OH [LP40]”, for which the IC50 with RPMI 8226 was found to be 5.6 µM; in the series on OVCAR-3, 9 µM; in the series with MDA MB 435 it was 190 µM; in the series with HCT-15 it was 7.1 µM. For the same substance, in the series with E. coli (TOP10) (24 h, MHB), the MIC is recorded as over 50 µM. The “MIC against E. coli (TOP10)” value against E. coli (TOP10) (TOP10, 24 h, pH 6) amounted to 0.4 µM.

For orientation: MIC means the lowest concentration that inhibits growth of the organism. A low value points to greater potency. Usually IC50 stands for the midpoint of a concentration-inhibition curve. Low readings indicate greater potency in that assay, high ones weaker potency in that assay.

The values above are taken from paper PMC11345766, “Computational Design of Pore-Forming Peptides with Potent Antimicrobial and Anticancer Activities” (Journal of Medicinal Chemistry, 2024).
